Calls of active or inactive are those of the source.
Legend:
[1] = inhibitors of intracellular T. cruzi replication, confirmation, NIH3T3 host cells, beta-gal luminescence (AID 2044); assay type: functional, cell-based;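 note: intracellular parasites grown in NIH/3T3 mouse fibroblasts as host cells; luminescent beta-galactosidase reporter signal from transgenic T. cruzi replicating inside host cells; inhibitors lower the luminescence signal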
[2] = inhibitors of clade B AD8 Env fusion, dose response, cell-based, cherry-pick (AID 652062); assay type: functional;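 note: luciferase signal from cell-cell fusion driven by HIV-1 clade B AD8 Env; potency is for inhibitors of fusion seen as a drop in luminescence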
[3] = cytotoxicity toward NIH3T3 fibroblasts, dose response, counter-screen, cell-based, ATP luminescence, mouse fibroblasts (AID 2010); assay type: functional;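 note: cells exposed to compound for about 90 hours before reading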
[4] = NIH-3T3 fibroblast cytotoxicity, dose response, cytotoxicity control, cell-based, fluorescence, Alamar Blue, secondary assay (AID 2327); assay type: functional;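 note: NIH-3T3 mouse fibroblasts cultured with fluconazole at 8 µg/mL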
[5] = CEM21 lymphoblast cell cytotoxicity, dose response, cytotoxicity control for viral fusion inhibitor project, CellTiter-Glo luminescence, cherry-picked (AID 652042); assay type: functional, cell-based;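 note: potency for signal decrease meaning cytotoxicity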
[6] = inhibitors of HIV Env-driven cell fusion, dose response, cherry-pick (AID 652057); assay type: functional, cell-based
[7] = off-target signal loss in HeLa-CEM21 co-culture – HeLa F-luc CTL cells, cherry-picked, counter-screen for HIV-1 Env fusion inhibitor project, dose response (AID 652040); assay type: functional, cell-based;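 note: potency for signal decrease marking cytotoxic or nonspecific inhibition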
[8] = ZM109 Env clade C HIV-1 fusion inhibitors, dose response, HeLa effector, CEM target cells, luciferase, cherry-pick (AID 652058); assay type: functional, cell-based
[9] = C. albicans growth with fluconazole, confirmation, fluorescence, retest (AID 2467); assay type: functional, cell-based
[10] = target: T1, Replicative DNA helicase DnaB (Mycobacterium tuberculosis, UniProt P9WMR3); experiment: DnaB intein splicing inhibitors, dose response, biochemical, cell-free fluorescence (AID 449749); assay type: functional
T1 sequence (P9WMR3 whole entry): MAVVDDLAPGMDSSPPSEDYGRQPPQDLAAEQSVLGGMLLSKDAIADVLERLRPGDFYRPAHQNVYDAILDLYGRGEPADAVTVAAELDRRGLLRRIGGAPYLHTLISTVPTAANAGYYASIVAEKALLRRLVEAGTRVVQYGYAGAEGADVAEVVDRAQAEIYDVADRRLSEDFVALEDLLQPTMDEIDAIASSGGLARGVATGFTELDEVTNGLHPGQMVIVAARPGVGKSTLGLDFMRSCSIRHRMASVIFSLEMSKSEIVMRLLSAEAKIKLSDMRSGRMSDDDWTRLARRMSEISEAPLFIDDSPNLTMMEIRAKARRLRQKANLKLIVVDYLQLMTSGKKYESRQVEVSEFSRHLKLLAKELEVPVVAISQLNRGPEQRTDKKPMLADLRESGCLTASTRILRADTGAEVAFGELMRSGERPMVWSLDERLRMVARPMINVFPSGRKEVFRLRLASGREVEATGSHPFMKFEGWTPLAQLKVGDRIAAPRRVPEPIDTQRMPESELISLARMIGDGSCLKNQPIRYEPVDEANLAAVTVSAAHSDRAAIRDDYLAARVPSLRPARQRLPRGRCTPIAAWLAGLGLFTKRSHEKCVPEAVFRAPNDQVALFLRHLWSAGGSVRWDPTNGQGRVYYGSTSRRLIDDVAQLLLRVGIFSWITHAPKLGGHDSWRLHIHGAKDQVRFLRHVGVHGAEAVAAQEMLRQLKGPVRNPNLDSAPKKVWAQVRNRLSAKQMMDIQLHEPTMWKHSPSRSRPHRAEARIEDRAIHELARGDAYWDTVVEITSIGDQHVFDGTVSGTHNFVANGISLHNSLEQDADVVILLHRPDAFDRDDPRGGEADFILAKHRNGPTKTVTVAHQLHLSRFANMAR

[11] = target: FAD-linked sulfhydryl oxidase ALR (Homo sapiens, UniProt P55789); experiment: inhibitors of human ALR sulfhydryl oxidase, dose response, biochemical, H2O2 detection, luminescence, cherry-pick (AID 493248)
Sequence of FAD-linked sulfhydryl oxidase ALR (P55789 whole entry): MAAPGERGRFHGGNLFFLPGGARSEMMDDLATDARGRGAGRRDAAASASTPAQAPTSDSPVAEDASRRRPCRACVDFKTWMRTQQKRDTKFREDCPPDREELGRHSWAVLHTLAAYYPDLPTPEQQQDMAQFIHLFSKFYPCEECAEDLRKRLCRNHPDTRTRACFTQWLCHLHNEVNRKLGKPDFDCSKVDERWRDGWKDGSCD

[12] = target: T2, Protein RecA (Mycobacterium tuberculosis, UniProt P9WHJ3); experiment: Fluorescence Cell-Free Homogeneous Dose Retest to Identify Inhibitors of RecA-Intein Splicing Activity. [Related pubchem assays (depositor defined):AID2097, AID2223, AID489010, AID492950]; assay type: functional
T2 sequence (P9WHJ3 whole entry): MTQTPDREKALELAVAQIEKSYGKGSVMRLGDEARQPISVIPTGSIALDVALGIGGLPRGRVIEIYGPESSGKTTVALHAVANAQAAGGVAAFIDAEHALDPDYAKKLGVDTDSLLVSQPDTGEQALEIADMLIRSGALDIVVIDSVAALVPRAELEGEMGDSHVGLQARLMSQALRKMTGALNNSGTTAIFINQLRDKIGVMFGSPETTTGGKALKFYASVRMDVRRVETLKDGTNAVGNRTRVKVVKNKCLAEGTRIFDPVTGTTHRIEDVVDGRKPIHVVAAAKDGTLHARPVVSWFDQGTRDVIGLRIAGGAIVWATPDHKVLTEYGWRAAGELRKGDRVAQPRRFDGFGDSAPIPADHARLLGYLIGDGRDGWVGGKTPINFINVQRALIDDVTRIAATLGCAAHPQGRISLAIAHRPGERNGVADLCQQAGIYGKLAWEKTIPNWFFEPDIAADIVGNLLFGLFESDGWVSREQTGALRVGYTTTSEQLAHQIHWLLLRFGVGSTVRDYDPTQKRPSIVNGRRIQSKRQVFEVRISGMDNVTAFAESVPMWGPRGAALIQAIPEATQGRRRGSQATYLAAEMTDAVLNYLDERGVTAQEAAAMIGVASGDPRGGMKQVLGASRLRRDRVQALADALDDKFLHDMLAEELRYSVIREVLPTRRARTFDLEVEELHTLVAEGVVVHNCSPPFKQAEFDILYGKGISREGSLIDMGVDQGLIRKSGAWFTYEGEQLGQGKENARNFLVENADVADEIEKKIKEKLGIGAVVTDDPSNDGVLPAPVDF

[13] = target: ATP-binding cassette sub-family B member 6 (Homo sapiens, UniProt Q9NP58); experiment: ABCB6 transporter inhibitors, dose response, K562-ABCB6 cells, flow cytometry, cherry pick 1 (AID 623955); assay type: functional; conditions: read-out: EC50_MICROM
Sequence of ATP-binding cassette sub-family B member 6 (Q9NP58 whole entry): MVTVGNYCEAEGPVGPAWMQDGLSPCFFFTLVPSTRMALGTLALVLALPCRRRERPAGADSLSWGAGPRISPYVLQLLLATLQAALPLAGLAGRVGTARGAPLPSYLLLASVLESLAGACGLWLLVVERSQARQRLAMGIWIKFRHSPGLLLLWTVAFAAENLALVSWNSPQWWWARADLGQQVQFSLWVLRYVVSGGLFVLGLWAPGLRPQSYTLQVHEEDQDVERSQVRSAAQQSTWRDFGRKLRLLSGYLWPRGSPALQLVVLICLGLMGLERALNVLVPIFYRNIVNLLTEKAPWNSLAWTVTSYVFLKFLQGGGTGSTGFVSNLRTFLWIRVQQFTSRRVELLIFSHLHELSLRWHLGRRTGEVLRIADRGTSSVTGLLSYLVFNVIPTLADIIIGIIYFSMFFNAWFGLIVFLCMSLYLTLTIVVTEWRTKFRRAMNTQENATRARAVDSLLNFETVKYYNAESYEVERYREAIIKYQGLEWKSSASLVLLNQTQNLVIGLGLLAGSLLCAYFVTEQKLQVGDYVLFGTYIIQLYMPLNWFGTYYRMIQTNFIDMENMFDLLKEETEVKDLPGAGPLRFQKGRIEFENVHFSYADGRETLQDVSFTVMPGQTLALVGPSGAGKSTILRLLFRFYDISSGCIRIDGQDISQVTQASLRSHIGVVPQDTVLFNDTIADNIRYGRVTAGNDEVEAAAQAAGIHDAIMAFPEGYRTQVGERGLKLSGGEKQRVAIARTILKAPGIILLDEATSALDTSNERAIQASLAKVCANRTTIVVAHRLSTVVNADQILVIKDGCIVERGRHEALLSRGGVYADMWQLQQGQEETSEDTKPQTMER

[14] = target: Tyrosine-protein phosphatase non-receptor type 5 (Homo sapiens, UniProt P54829); experiment: STEP phosphatase inhibitors, confirmation, biochemical, fluorescence intensity, uHTS hits (AID 602372); assay type: functional; conditions: read-out: IC50_Mean
Sequence of Tyrosine-protein phosphatase non-receptor type 5 (P54829 whole entry): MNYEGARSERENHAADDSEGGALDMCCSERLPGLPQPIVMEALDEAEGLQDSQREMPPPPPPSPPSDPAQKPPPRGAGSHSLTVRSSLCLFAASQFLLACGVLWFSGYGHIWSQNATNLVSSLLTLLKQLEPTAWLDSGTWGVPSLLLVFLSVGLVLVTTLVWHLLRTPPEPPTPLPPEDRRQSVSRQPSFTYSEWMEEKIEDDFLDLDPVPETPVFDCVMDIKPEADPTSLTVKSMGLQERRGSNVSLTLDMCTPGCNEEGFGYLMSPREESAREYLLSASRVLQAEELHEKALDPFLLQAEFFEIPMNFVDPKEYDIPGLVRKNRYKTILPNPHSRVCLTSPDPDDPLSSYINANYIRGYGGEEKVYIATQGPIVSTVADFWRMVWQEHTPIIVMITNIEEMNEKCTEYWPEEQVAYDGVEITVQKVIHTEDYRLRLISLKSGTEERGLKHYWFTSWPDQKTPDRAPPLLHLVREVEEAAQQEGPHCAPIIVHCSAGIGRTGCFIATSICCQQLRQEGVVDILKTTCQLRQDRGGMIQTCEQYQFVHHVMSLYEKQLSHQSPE

[15] = target: Tyrosine-protein phosphatase non-receptor type 11 (Homo sapiens, UniProt Q06124); experiment: SHP2 phosphatase inhibition, dose response, selectivity assay for STEP inhibitor project, biochemical (AID 602367); assay type: functional; conditions: read-out: IC50_Mean
Sequence of Tyrosine-protein phosphatase non-receptor type 11 (Q06124 whole entry): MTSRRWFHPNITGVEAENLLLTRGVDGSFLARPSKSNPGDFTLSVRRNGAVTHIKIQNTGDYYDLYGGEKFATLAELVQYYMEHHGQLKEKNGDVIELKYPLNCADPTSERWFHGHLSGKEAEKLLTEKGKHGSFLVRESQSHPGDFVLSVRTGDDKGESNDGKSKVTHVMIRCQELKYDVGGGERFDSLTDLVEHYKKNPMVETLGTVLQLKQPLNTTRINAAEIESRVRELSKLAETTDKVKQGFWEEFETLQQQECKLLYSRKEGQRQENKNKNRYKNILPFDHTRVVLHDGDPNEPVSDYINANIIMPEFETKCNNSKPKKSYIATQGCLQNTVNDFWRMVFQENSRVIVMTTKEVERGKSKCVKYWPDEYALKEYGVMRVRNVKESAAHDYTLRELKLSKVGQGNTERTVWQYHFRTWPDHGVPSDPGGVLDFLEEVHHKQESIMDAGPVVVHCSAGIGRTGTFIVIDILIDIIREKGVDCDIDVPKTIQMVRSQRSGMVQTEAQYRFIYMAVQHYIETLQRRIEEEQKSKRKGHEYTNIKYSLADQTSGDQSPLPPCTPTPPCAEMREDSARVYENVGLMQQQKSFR

[16] = target: Dual specificity protein phosphatase 3 (Homo sapiens, UniProt P51452); experiment: VHR phosphatase inhibition, dose response, selectivity assay for STEP inhibitor project, biochemical (AID 602374); assay type: functional; conditions: read-out: IC50_Mean
Sequence of Dual specificity protein phosphatase 3 (P51452 whole entry, the tested form may be a part): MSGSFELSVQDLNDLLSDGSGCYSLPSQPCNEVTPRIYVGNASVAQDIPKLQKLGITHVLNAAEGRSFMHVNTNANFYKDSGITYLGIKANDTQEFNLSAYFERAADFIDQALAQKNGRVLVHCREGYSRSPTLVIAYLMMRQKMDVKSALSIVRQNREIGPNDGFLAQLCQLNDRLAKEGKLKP

[17] = Fluorescence-based cell-based high throughput dose response assay for inhibitors of the interaction of nucleotide-binding oligomerization domain containing 2 (NOD2) and the receptor-interacting serine-threonine kinase 2 (RIPK2).; assay type: functional; conditions: Homo sapiens
[18] = inhibitors of PGC1a acetylation in cells, dose response, cell-based, cherry-picked samples (AID 720514); assay type: functional;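 note: potency may reflect raised or lowered acetylation signal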
[19] = Luminescence Cell-Based Dose Confirmation HTS to Identify Activators of 5'UTR Stem-Loop Driven Alpha-Synuclein mRNA Translation in H4 Neuroglioblastoma Cells. [Related pubchem assays: 1829 (Project Summary), 1814 (Primary HTS)]; assay type: functional
[20] = tested on: H4; experiment: Luminescence Cell-Based Dose Response HTS to Identify Activators of 5'UTR Stem-Loop Driven Prion Protein mRNA Translation in H4 Neuroglioblastoma Cells. [Related pubchem assays: 1829 (Project Summary), 1814 (Primary HTS)]; assay type: functional; conditions: Homo sapiens
[21] = target: Heat shock protein HSP 90-alpha (Homo sapiens, UniProt P07900); assay type: functional, organism-based
[22] = Luminescence Cell-Based Dose Response HTS to Identify Activators of Luciferase Translation or Activity in H4 […] Cells. [Related pubchem assays: 1829 (Project Summary), 1814 (Primary HTS)]; assay type: functional
[23] = target: T3, Sentrin-specific protease 8 (Homo sapiens, UniProt Q96LD8); assay type: functional
T3 sequence (Q96LD8 whole entry): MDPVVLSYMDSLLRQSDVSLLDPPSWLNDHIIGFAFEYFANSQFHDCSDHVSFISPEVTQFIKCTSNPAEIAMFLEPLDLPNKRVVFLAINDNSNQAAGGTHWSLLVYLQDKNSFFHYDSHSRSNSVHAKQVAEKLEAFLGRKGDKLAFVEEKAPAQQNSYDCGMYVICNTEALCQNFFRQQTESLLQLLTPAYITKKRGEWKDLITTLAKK

[24] = target: T3, Sentrin-specific protease 8; assay type: functional; remark: listed apart in the source
[25] = target: Protein S100-A4 (Homo sapiens, UniProt P26447); experiment: S100A4-myosin IIA binding inhibitor potency, dose response, biochemical, fluorescence polarization, cherry-picked hits (AID 687001); assay type: functional
Sequence of Protein S100-A4 (P26447 whole entry): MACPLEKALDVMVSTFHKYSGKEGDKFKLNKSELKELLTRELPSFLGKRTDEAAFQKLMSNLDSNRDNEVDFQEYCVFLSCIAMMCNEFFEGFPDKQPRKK

Structure (SMILES): O=C(COc1ccc(Cl)cc1Cl)N1CCCN(C(=O)COc2ccc(Cl)cc2Cl)CC1
- EC50 [1]: 1.39 µM (active)
- AC50 [2]: 3.24 µM (active)
- EC50 [3]: > 30 µM (not active)
- EC50 [4]: > 150 µM (inactive)
- AC50 [5]: 68.3 µM (active)
- AC50 [6]: 3.52 µM (active)
- AC50 [7]: 5.48 µM (active)
- AC50 [8]: 3.44 µM (active)
- EC50 [9]: 2.18 µM (active)

Structure (SMILES): Cc1cccc(CS(=O)(=O)c2ncc(Cl)c(C(=O)Nc3c(C)cccc3C)n2)c1
- AC50 [10]: 4.28 µM (active)
- AC50 [11]: 0.164 µM (active)
- EC50 [12]: 4.66 µM (active)
- EC50 [13]: 74.5 µM (active)

Structure (SMILES): O=C(NC1CCCCCC1)C(=S)NC1CCCCC1
- IC50 [14]: 56.9 µM (inactive)
- IC50 [15]: 9.88 µM (active)
- IC50 [16]: 3.07 µM (active)

Structure (SMILES): O=c1oc(-c2ccccc2)cc(Cl)c1Cl
- IC50 [17]: 1.15 µM (active)
- AC50 [18]: 11.2 µM (active)
- AC50 [10]: 10.5 µM (active)
- EC50 [19]: > 120 µM (not active)
- EC50 [20]: > 60 µM (not active)
- EC50 [12]: 4.74 µM (active)
- AC50 [21]: 2.64 µM (active)
- EC50 [22]: > 120 µM (not active)

Structure (SMILES): COC(=O)CCCC1=CC2=CC(=O)C(C)(OC(=O)c3cccs3)C(=O)C2=CN1C1CCCC1 (configuration not stated)
- IC50 [23]: 5.99 µM (active)
- IC50 [24]: 7.97 µM (active)

Structure (SMILES): Cc1cc(C)c(S(=O)(=O)NCc2ccc3c(c2)cc(C)n3C)c(C)c1
- AC50 [25]: 10.7 µM (active)
